Test results from the supplement of paper PMC10307832.

Key:
Assay in all cases: relative viability (nuclei count vs DMSO), 5 days (fraction); higher = more cells survive
[1] = compound: COc1cc2nc(N3CCCN(C)CC3)nc(NC3CCN(Cc4ccccc4)CC3)c2cc1OC + C[C@]1(O)C[C@@H](c2nc(-c3ccc4ccc(-c5ccccc5)nc4c3)c3c(N)nccn32)C1 [Linsitinib] (partner 1 µM)
Procedure, shortened: (§1)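 Each reported value is a median over duplicate plates. It expresses relative viability: treated-well nuclei count divided by vehicle-well nuclei count. Lung cancer cell lines in 1536-well plates were dosed by pin tool a day after seeding, alone with one drug or with a fixed anchor-drug dose plus five library-drug doses (not always all listed) in √10 steps, and nuclei were counted after 5 days.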

AZD6482 + Crizotinib = compound: Cc1cc([C@@H](C)Nc2ccccc2C(=O)O)c2nc(N3CCOCC3)cc(=O)n2c1 [AZD6482] + C[C@@H](Oc1cc(-c2cnn(C3CCNCC3)c2)cnc1N)c1c(Cl)ccc(F)c1Cl [Crizotinib] (partner 1 µM)
Procedure, shortened: as §1

AZD6482 + Pemetrexed = compound: Cc1cc([C@@H](C)Nc2ccccc2C(=O)O)c2nc(N3CCOCC3)cc(=O)n2c1 [AZD6482] + Nc1nc2[nH]cc(CCc3ccc(C(=O)N[C@@H](CCC(=O)O)C(=O)O)cc3)c2c(=O)[nH]1 [Pemetrexed] (partner 0.2 µM)
Procedure, shortened: as §1

AZD6482 + Olaparib = compound: Cc1cc([C@@H](C)Nc2ccccc2C(=O)O)c2nc(N3CCOCC3)cc(=O)n2c1 [AZD6482] + O=C(c1cc(Cc2n[nH]c(=O)c3ccccc23)ccc1F)N1CCN(C(=O)C2CC2)CC1 [Olaparib] (partner 8 µM)
Procedure, shortened: as §1

Cell Line	relative viability ([1]; first compound 0.2 µM)	relative viability ([1]; first compound 0.6325 µM)	relative viability ([1]; first compound 2 µM)	relative viability ([1]; first compound 6.325 µM)	relative viability (AZD6482 + Crizotinib; first compound 0.08 µM)	relative viability (AZD6482 + Crizotinib; first compound 0.253 µM)	relative viability (AZD6482 + Crizotinib; first compound 0.8 µM)	relative viability (AZD6482 + Crizotinib; first compound 2.53 µM)	relative viability (AZD6482 + Crizotinib; first compound 8 µM)	relative viability (AZD6482 + Pemetrexed; first compound 0.08 µM)	relative viability (AZD6482 + Pemetrexed; first compound 0.253 µM)	relative viability (AZD6482 + Pemetrexed; first compound 0.8 µM)	relative viability (AZD6482 + Pemetrexed; first compound 2.53 µM)	relative viability (AZD6482 + Pemetrexed; first compound 8 µM)	relative viability (AZD6482 + Olaparib; first compound 0.08 µM)	relative viability (AZD6482 + Olaparib; first compound 0.253 µM)	relative viability (AZD6482 + Olaparib; first compound 0.8 µM)	relative viability (AZD6482 + Olaparib; first compound 2.53 µM)	relative viability (AZD6482 + Olaparib; first compound 8 µM)
NCI-H2405	0.934	0.975	0.979	0.809	0.577	0.772	0.893	0.587	0.546	0.81	0.977	0.987	0.569	0.436	0.599	0.861	0.929	0.541	0.677
LCLC-97TM1	0.176	–	0.159	0.195	0.479	0.327	0.298	0.294	0.234	0.15	0.166	0.164	–	0.162	0.403	0.285	0.413	–	0.244
NCI-H596	1.12	1.02	1.17	0.992	0.792	0.824	1	0.943	0.871	0.451	0.485	0.486	0.462	0.492	0.596	0.68	1.01	0.737	0.598
H3255	0.983	0.992	1.04	0.998	0.869	0.819	0.841	0.534	0.714	0.535	0.577	0.583	0.464	0.507	0.559	0.567	0.596	0.492	0.55
SK-MES-1	1	1	1.08	1.01	0.854	0.838	0.86	0.419	0.439	0.84	0.974	0.876	0.394	0.532	0.457	0.598	0.529	0.305	0.336
NCI-H1437	1.06	0.956	1.11	0.891	0.921	0.949	1.02	0.788	0.872	0.314	0.307	0.306	0.274	0.225	0.644	0.672	0.651	0.599	0.557
LU99A	0.628	0.537	0.552	0.549	0.609	0.495	0.591	0.466	0.471	0.187	0.2	0.158	0.17	0.172	0.259	0.273	0.255	0.28	0.24
HCC-827	1	0.969	0.967	0.941	0.894	0.958	0.936	0.885	0.63	0.251	0.254	0.245	0.245	0.238	0.653	0.594	0.515	0.432	0.996
